The target in data set [1] is human MDR1-encoded P-gp (L-MDR1 cells) (Homo sapiens, UniProt P08183). Kind of data set: Transport of digoxin and ginsenosides across L-MDR1 cell monolayers (efflux ratio). To be noted: for Effect of verapamil on efflux ratio / Papp / Effect of SLE on efflux ratio / transport: L-MDR1 cells; for Effect of verapamil on efflux ratio / Papp: 10 µM verapamil; for Effect of SLE on efflux ratio / transport: SLE 2.0 and 10.0 µg/mL; for P-gp substrate classification: summary of transport/uptake in LLC-PK1, L-MDR1 and Caco-2 cells with verapamil. It is filed as in vitro ADME. The procedure, abridged: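 LLC-PK1 (no P-gp) and L-MDR1 (human MDR1-overexpressing) monolayers on filters, TEER ≥200 ohms, preincubated 1.5 h at 37°C in HBSS pH 7.4 with verapamil (10 µM), SLE (2.0 or 10.0 µg/mL) or blank both sides. GE (100 µg/mL) added apical or basolateral, 2 h further; ginsenosides by LC/MS. Papp each direction; efflux ratio = Papp(B→A)/Papp(A→B).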

Data set [2] in a line: Transport of digoxin and ginsenosides across Caco-2 cell monolayer (efflux ratio). It is filed as in vitro ADME, human. As to conditions: human. The protocol: Caco-2 cells were purchased from American Type Culture Collection (Manassas, VA), and were routinely cultured in Dulbecco's modified Eagle's medium supplemented with 10% fetal bovine serum, 1% nonessential amino acids, 1 mM sodium pyruvate, and 100 U/mL penicillin and streptomycin (Invitrogen, Carlsbad, CA). The cells were grown in an atmosphere of 5% CO2 at 37°C, and cell medium was changed every other day. Cells were seeded at a density of 4×10^4 cells per well in 24-well microporous polycarbonate insert filter plates (0.4-µm pore size) (Corning Costar plates; Corning Life Sciences, Lowell, MA) and grown for 15 days in Caco-2 growth medium. The medium was replaced every 3 to 4 days. Before running the assay, the culture medium was replaced by HBSS buffer supplemented with 10 mM Hepes and 20 mM glucose.
Caco-2 cells with a density of 1.2×10^5 cells/insert were seeded on a permeable polycarbonate insert (Millicell cell culture inserts, 0.4 µm pore size, 12 mm diameter; Millipore Corporation) in 24-well tissue culture plates and were used for the experiment 18 to 21 days after seeding. [^14C]Mannitol permeability and transepithelial electrical resistance measurements (Millicell-ERS epithelial volt-ohm meter; Millipore Corporation) were used to evaluate the integrity of Caco-2 cell monolayer. The monolayer used in transport studies had transepithelial electrical resistance values exceeding 600 Ω·cm^2, and the leakage of mannitol was less than 0.3% of the dose/h. Before transport initiation studies, the cell monolayer was first washed with warm HBSS (pH 7.4) twice. HBSS containing SLE (2.0 and 10.0 µg/mL) or 1% ethanol (control) was then loaded into both apical and basolateral chambers. After incubation at 37°C for 1.5 h, 100 µg/mL of GE was added to either the apical or basolateral side to evaluate the transport in absorptive and secretory directions, and the cell monolayer was incubated for another 2 h. 10 µM verapamil was used as a positive control inhibitor. At the designated time point, samples were taken from the receiving chamber for analysis. Ginsenosides were determined by LC-MS. All experiments were conducted in triplicate.
For the transport assay, the apparent permeability (P app, cm/s) in each direction (A→B and B→A) was calculated as follows, where A is the surface area of the membrane inserts (0.0804 cm^2), C 0 is the initial concentration of the compound applied in the donor compartment (2 µM), and △Q is the amount (micromoles) of compound transported over time △t (5 h = 18,000 s): [drawing 1]
The efflux ratio (ER) was a dimensionless number calculated as the ratio of the apparent permeability in the B→A direction divided by the apparent permeability in the A→B direction. [drawing 2]

[3] abbreviates: pH 7.4, Caco-2 cell monolayer, absence of inhibitor, GE 100 µg/mL, read-out: Efflux ratio.

Read-outs that look alike come from different tables or passages of the source.

Sequence of human MDR1-encoded P-gp (L-MDR1 cells) (P08183 whole entry): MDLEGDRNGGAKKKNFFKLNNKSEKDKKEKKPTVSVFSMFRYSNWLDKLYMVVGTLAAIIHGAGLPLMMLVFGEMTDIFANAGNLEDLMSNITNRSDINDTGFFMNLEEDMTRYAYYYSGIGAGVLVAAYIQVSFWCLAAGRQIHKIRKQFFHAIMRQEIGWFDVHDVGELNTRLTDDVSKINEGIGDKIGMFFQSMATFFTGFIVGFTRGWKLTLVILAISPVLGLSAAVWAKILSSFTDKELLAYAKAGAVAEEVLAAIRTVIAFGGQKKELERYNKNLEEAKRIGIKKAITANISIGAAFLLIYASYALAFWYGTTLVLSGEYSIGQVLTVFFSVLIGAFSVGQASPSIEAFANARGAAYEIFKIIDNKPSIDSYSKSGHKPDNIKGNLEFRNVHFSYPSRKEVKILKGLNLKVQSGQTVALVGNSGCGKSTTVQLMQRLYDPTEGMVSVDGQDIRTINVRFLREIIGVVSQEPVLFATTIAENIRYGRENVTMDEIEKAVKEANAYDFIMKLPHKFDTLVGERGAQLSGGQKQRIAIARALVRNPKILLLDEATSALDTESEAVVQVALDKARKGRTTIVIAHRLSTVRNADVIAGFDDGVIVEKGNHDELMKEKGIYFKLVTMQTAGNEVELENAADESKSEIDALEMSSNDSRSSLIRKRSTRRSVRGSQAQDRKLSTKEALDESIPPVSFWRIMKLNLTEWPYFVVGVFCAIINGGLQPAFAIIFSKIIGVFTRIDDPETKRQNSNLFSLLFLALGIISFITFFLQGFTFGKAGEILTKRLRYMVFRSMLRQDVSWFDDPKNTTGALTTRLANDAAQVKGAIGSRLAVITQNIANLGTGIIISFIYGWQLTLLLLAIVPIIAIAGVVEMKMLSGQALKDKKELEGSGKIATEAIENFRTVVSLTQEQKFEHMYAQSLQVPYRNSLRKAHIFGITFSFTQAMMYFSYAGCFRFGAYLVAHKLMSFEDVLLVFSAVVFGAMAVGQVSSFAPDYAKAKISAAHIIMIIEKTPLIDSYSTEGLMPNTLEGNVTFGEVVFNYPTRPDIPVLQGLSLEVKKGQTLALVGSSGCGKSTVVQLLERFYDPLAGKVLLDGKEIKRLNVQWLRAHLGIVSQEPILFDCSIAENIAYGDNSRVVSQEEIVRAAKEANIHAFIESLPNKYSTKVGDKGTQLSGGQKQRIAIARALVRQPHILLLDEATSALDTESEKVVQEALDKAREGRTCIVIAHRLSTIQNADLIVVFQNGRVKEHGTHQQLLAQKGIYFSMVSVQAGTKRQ

As to `C[C@H]1O[C@@H](O[C@H]2[C@@H](O)C[C@H](O[C@H]3[C@@H](O)C[C@H](O[C@H]4CC[C@@]5(C)[C@H](CC[C@@H]6[C@@H]5C[C@@H](O)[C@]5(C)[C@@H](C7=CC(=O)OC7)CC[C@]65O)C4)O[C@@H]3C)O[C@@H]2C)C[C@H](O)[C@@H]1O` [Digoxin, digoxin, reference compound], in data set [1], the “Effect of verapamil on efflux ratio / Papp” value is “significantly decrease of ER” and the “Effect of SLE on efflux ratio / transport” value was “significantly decreased”. Moreover, the efflux ratio at 2 h, 100 µg/mL in data set [2] (setting [3]) was 3.23.

With `CC(C)=CCC[C@](C)(O[C@@H]1O[C@H](CO[C@@H]2O[C@H](CO)[C@@H](O)[C@H](O)[C@H]2O)[C@@H](O)[C@H](O)[C@H]1O)[C@H]1CC[C@]2(C)[C@@H]1[C@H](O)C[C@@H]1[C@@]3(C)CC[C@H](O[C@@H]4O[C@H](CO)[C@@H](O)[C@H](O)[C@H]4O[C@@H]4O[C@H](CO)[C@@H](O)[C@H](O)[C@H]4O)C(C)(C)[C@@H]3CC[C@]12C` [Rb1, ginsenoside Rb1], in data set [1], the “Effect of verapamil on efflux ratio / Papp” value is “significantly decrease of ER”, the “Effect of SLE on efflux ratio / transport” value is reported as “significantly decreased” and the P-gp substrate classification result is listed as “moderate P-gp substrates”. Besides, the efflux ratio at 2 h, 100 µg/mL in data set [2] (setting [3]) was 3.77.

As for `CC(C)=CCC[C@](C)(O[C@@H]1O[C@H](CO[C@@H]2OC[C@H](O)[C@H](O)[C@H]2O)[C@@H](O)[C@H](O)[C@H]1O)[C@H]1CC[C@]2(C)[C@@H]1[C@H](O)C[C@@H]1[C@@]3(C)CC[C@H](O[C@@H]4O[C@H](CO)[C@@H](O)[C@H](O)[C@H]4O[C@@H]4O[C@H](CO)[C@@H](O)[C@H](O)[C@H]4O)C(C)(C)[C@@H]3CC[C@]12C` [Rb2, ginsenoside Rb2], the P-gp substrate classification entry in data set [1] is recorded as “moderate P-gp substrates”.

Regarding `CC(C)=CCC[C@](C)(O[C@@H]1O[C@H](CO[C@@H]2O[C@@H](CO)[C@H](O)[C@H]2O)[C@@H](O)[C@H](O)[C@H]1O)[C@H]1CC[C@]2(C)[C@@H]1[C@H](O)C[C@@H]1[C@@]3(C)CC[C@H](O[C@@H]4O[C@H](CO)[C@@H](O)[C@H](O)[C@H]4O[C@@H]4O[C@H](CO)[C@@H](O)[C@H](O)[C@H]4O)C(C)(C)[C@@H]3CC[C@]12C` [Rc, ginsenoside Rc], in data set [1], the “Effect of verapamil on efflux ratio / Papp” value was “significantly decrease of ER”, the “Effect of SLE on efflux ratio / transport” value is reported as “significantly decreased” and the P-gp substrate classification entry is reported as “moderate P-gp substrates”. Also, the efflux ratio at 2 h, 100 µg/mL in data set [2] (Caco-2, pH 7.4) worked out at 4.36.

On to `CC(C)=CCC[C@](C)(O[C@@H]1O[C@H](CO)[C@@H](O)[C@H](O)[C@H]1O)[C@H]1CC[C@]2(C)[C@@H]1[C@H](O)C[C@@H]1[C@@]3(C)CC[C@H](O[C@@H]4O[C@H](CO)[C@@H](O)[C@H](O)[C@H]4O[C@@H]4O[C@H](CO)[C@@H](O)[C@H](O)[C@H]4O)C(C)(C)[C@@H]3CC[C@]12C` [Rd, ginsenoside Rd], for which, in data set [1], the “Effect of verapamil on efflux ratio / Papp” value is on record as “significantly decrease of ER”, the “Effect of SLE on efflux ratio / transport” value is on record as “significantly decreased” and the P-gp substrate classification result is given as “moderate P-gp substrates”. The efflux ratio at 2 h, 100 µg/mL in data set [2] (setting [3]) is 4.47.

For the origin of these results see article PMC4055595, “Pharmacokinetic Compatibility of Ginsenosides and Schisandra Lignans in Shengmai-san: From the Perspective of P-Glycoprotein” (PLoS ONE, 2014).
